Numbers after ± are expanded uncertainties.
What was measured:
[1] = relative permittivity at zero frequency (dimensionless); conditions: Liquid, Parallel plate capacitor
[2] = relative permittivity at zero frequency (dimensionless); φn = volume fraction of the nth substance listed; conditions: Liquid, Parallel plate capacitor

CC(C)O [propan-2-ol]
[1], 307116 kPa
Conditions | relative permittivity at zero frequency
303 K | 18.25 ± 0.95
313 K | 17.75 ± 0.95
323 K | 16.57 ± 0.95

CCO [ethanol] + Cc1ccccc1
[2], 101 kPa, φ1 = 1
Conditions | relative permittivity at zero frequency
303 K | 24.26 ± 0.97
313 K | 23.85 ± 0.95
323 K | 23.25 ± 0.95

CCO [ethanol]
[1], 101 kPa
Conditions | relative permittivity at zero frequency
303 K | 24.26 ± 0.97
313 K | 23.85 ± 0.95
323 K | 23.25 ± 0.95

Cc1ccccc1 [toluene] + CO
relative permittivity at zero frequency, [2], 101 kPa
Conditions | φ2 = 0.1 | φ2 = 0.2 | φ2 = 0.3 | φ2 = 0.4 | φ2 = 0.5 | φ2 = 0.6 | φ2 = 0.7 | φ2 = 0.8 | φ2 = 0.9
303 K | 5.82 ± 0.95 | 7.85 ± 0.95 | 10.56 ± 0.95 | 12.89 ± 0.95 | 15.86 ± 0.95 | 19.25 ± 0.95 | 22.54 ± 0.95 | 25.91 ± 1 | 29.34 ± 1.2
313 K | 5.03 ± 0.95 | 7.57 ± 0.95 | 10.29 ± 0.95 | 12.66 ± 0.95 | 15.11 ± 0.95 | 18.71 ± 0.95 | 22.17 ± 0.95 | 25.38 ± 1 | 28.83 ± 1.1
323 K | 4.87 ± 0.95 | 6.92 ± 0.95 | 9.82 ± 0.95 | 12.14 ± 0.95 | 14.72 ± 0.95 | 18.27 ± 0.95 | 21.67 ± 0.95 | 24.95 ± 1 | 28.42 ± 1.1

CCCO [propan-1-ol] + Cc1ccccc1
[2], 101 kPa, φ1 = 1
Conditions | relative permittivity at zero frequency
303 K | 19.95 ± 0.95
313 K | 18.65 ± 0.95
323 K | 17.82 ± 0.95

Cc1ccccc1 [toluene] + CCCO
relative permittivity at zero frequency, [2], 101 kPa
Conditions | φ2 = 0.1 | φ2 = 0.2 | φ2 = 0.3 | φ2 = 0.4 | φ2 = 0.5 | φ2 = 0.6 | φ2 = 0.7 | φ2 = 0.8 | φ2 = 0.9
303 K | 3.28 ± 0.95 | 4.67 ± 0.95 | 6.29 ± 0.95 | 7.59 ± 0.95 | 8.79 ± 0.95 | 11.44 ± 0.95 | 13.76 ± 0.95 | 15.84 ± 0.95 | 18.08 ± 0.95
313 K | 3.17 ± 0.95 | 4.59 ± 0.95 | 6.18 ± 0.95 | 7.23 ± 0.95 | 8.17 ± 0.95 | 11.18 ± 0.95 | 13.37 ± 0.95 | 15.59 ± 0.95 | 17.87 ± 0.95
323 K | 2.98 ± 0.95 | 4.42 ± 0.95 | 5.95 ± 0.95 | 6.89 ± 0.95 | 7.88 ± 0.95 | 10.89 ± 0.95 | 13.18 ± 0.95 | 15.29 ± 0.95 | 17.24 ± 0.95

Cc1ccccc1 [toluene] + CCO
relative permittivity at zero frequency, [2], 101 kPa
Conditions | φ2 = 0.1 | φ2 = 0.2 | φ2 = 0.3 | φ2 = 0.4 | φ2 = 0.5 | φ2 = 0.6 | φ2 = 0.7 | φ2 = 0.8 | φ2 = 0.9
303 K | 3.97 ± 0.95 | 5.64 ± 0.95 | 7.43 ± 0.95 | 8.29 ± 0.95 | 10.1 ± 0.95 | 12.53 ± 0.95 | 15.27 ± 0.95 | 18.07 ± 0.95 | 21.14 ± 0.95
313 K | 3.42 ± 0.95 | 5.27 ± 0.95 | 6.34 ± 0.95 | 7.98 ± 0.95 | 9.7 ± 0.95 | 12.26 ± 0.95 | 14.78 ± 0.95 | 17.72 ± 0.95 | 20.78 ± 0.95
323 K | 2.95 ± 0.95 | 4.91 ± 0.95 | 6.14 ± 0.95 | 7.87 ± 0.95 | 9.2 ± 0.95 | 12.07 ± 0.95 | 14.54 ± 0.95 | 17.28 ± 0.95 | 20.14 ± 0.95

CC(C)O [propan-2-ol] + Cc1ccccc1
relative permittivity at zero frequency, [2], 307116 kPa
Conditions | φ1 = 0.1 | φ1 = 0.2 | φ1 = 0.3 | φ1 = 0.4 | φ1 = 0.5 | φ1 = 0.6 | φ1 = 0.7 | φ1 = 0.8 | φ1 = 0.9 | φ1 = 1
303 K | 3.55 ± 0.95 | 4.83 ± 0.95 | 5.98 ± 0.95 | 6.85 ± 0.95 | 8.06 ± 0.95 | 10.1 ± 0.95 | 12.09 ± 0.95 | 14.27 ± 0.95 | 16.36 ± 0.95 | 18.25 ± 0.95
313 K | 3.12 ± 0.95 | 4.48 ± 0.95 | 5.55 ± 0.95 | 6.45 ± 0.95 | 7.75 ± 0.95 | 9.73 ± 0.95 | 11.75 ± 0.95 | 13.65 ± 0.95 | 15.98 ± 0.95 | 17.75 ± 0.95
323 K | 3 ± 0.95 | 4.12 ± 0.95 | 5.13 ± 0.95 | 6.15 ± 0.95 | 7.46 ± 0.95 | 9.45 ± 0.95 | 11.24 ± 0.95 | 13.34 ± 0.95 | 15.35 ± 0.95 | 16.57 ± 0.95

CCCO [propan-1-ol]
[1], 101 kPa
Conditions | relative permittivity at zero frequency
303 K | 19.95 ± 0.95
313 K | 18.65 ± 0.95
323 K | 17.82 ± 0.95

CO [methanol] + Cc1ccccc1
[2], 101 kPa, φ1 = 1
Conditions | relative permittivity at zero frequency
303 K | 33.19 ± 1.3
313 K | 32.35 ± 1.3
323 K | 31.98 ± 1.3

CO [methanol]
[1], 101 kPa
Conditions | relative permittivity at zero frequency
303 K | 33.19 ± 1.3
313 K | 32.35 ± 1.3
323 K | 31.98 ± 1.3

Source: the NIST ThermoML archive (doi:10.1016/j.tca.2013.05.022)
